# Test results published in patent US20110003012A1, “TREATING PATIENTS WITH SUBARACHNOID HEMORRHAGE” (Duke University, priority 2007, published 2011).
# Where two headings read alike, the source gives them in different places.
# Legend:
# subarachnoid hemorrhage [1] = settings: human, in vivo
# [2] = Blood pressure with or without ENO inhalation in normal mice; settings: inhalation of 20 ppm, n=5 each group
# hemoglobin = assay: S-nitrosylation of hemoglobin / blood NO after 3 days exposure to ENO (FIG. 5); format: in vivo; settings: 3 days exposure to 20 ppm ENO
# subarachnoid hemorrhage [3] = assay: Laser Doppler blood flow in MCA territory and blood pressure 7 days after SAH (Background Example 3); format: in vivo; settings: mice 7 days after SAH
# Procedure: Mice were subjected to subarachnoid hemorrhage induced by filament perforation of the right middle cerebral artery (MCA). Mice were allowed to recover for 7 days. The mice were then anesthetized and a laser Doppler flow probe was positioned over the brain within the territory perfused by the MCA and blood pressure was recorded. The animals were allowed to stabilize for 30 minutes (time=1-30 min).
# [4] = test system: subarachnoid hemorrhage induced vasospasm; assay: Intraluminal filament-induced SAH in mice, ENO inhalation for 3 days (Background Example 2)
# vasospasm = settings: cited from earlier work
# [5] = SAH mice, 20 ppm ENO inhalation 3 days, p<0.01
# [6] = inhalation at 20 ppm for 3 days
compound,measurement,setting,value
CCCCON=O [butyl nitrite],Cerebral infarction,subarachnoid hemorrhage [1]; iv,prevented
same,Mean arterial blood pressure reduction,subarachnoid hemorrhage [1]; iv,≤ 10%
same,Vasospasm,subarachnoid hemorrhage [1]; iv,does not occur
"CCON=O [ENO, ethyl nitrite]",Change in blood pressure,[2],did not cause a change
same,Red blood cell lysate nitrosothiol (SNO) increase,hemoglobin; FIG. 5A,approximately 4 fold
same,Total red blood cell NO,hemoglobin; FIG. 5B,increase
same,Change in serum total NO,hemoglobin; FIG. 5C,negligible
same,Mean arterial pressure,subarachnoid hemorrhage [3]; 20 ppm ENO added to inspiratory gas,remained unchanged
same,"Blood flow increase (laser Doppler, MCA territory)",subarachnoid hemorrhage [3]; onset of 20 ppm ENO,25%
same,Rotarod performance,"[4]; 3 days post-SAH, inhalation of 20 ppm, p=0.06",a trend for improvement
same,Arterial narrowing (large vessel spasm),[4]; [5],improved
same,Decreased forebrain ROD (small vessel spasm),[4]; [5],improved
same,Subarachnoid hemorrhage induced vasospasm,[4]; [6],attenuated
same,Systemic hypotension,[4]; [6],without causing systemic hypotension
same,Effect in sham surgery mice,"[4]; sham surgery, 20 ppm inhalation, n=5 each group, p=0.9",no effect
same,Cerebral infarction,subarachnoid hemorrhage [1],prevented
same,Vasospasm,subarachnoid hemorrhage [1],does not occur
O=NO [sodium nitrite],Vasospasm compared to control,"vasospasm; both regimens: low dose infusion plus bolus, or higher dose infusion without bolus",reduced vasospasm
same,Vasospasm reduced to,"vasospasm; higher dose infusion, no bolus, two of three cases",20%
same,Transient blood pressure reduction,"vasospasm; lower dose infusion over 24 hours plus bolus, after bolus",more than 15%
